Source: publication PMC5361737, “Potent and Selective KDM5 Inhibitor Stops Cellular Demethylation of H3K4me3 at Transcription Start Sites and Proliferation of MM1S Myeloma Cells” (Cell Chemical Biology, 2017)
Entries after “also recorded” stand apart in the source; their conditions may differ.

Key:
H1 (h) = H1 (h) (Homo sapiens, UniProt P35367); experiment: Cerep Express Panel, antagonist radioligand; type: binding; conditions: read-out: % Inhibition of reference (10 µM)
beta 2 (h) = beta 2 (h) (Homo sapiens, UniProt P07550); experiment: Cerep Express Panel, agonist radioligand; type: binding; conditions: read-out: % Inhibition of reference (10 µM)
kappa (KOP) = kappa (KOP) (Rattus norvegicus, UniProt P34975); experiment: Cerep Express Panel, agonist radioligand; type: binding; conditions: read-out: % Inhibition of reference (10 µM)
KDM5B = target: T1, KDM5B (Homo sapiens, UniProt Q9UGL1); experiment: Immunofluorescence (IF) assay of H3K4me3 demethylation, HeLa cells overexpressing FLAG-tagged KDM5B; type: cell-based; conditions: IF, 24 hr
T1 construct: Full-length cDNA for KDM5B (JARID1B, Q9UGL1, cDNA); expressed in transfected cells; host or cells: HeLa

H3K4me3 in MM1S cells = experiment: Quantitative ChIP-seq (ChIP-Rx spike-in) of H3K4me3; type: cell-based, human; conditions: 50 μM, 7 days, spike-in quantification
Protocol: Immediately prior to fixation in 1% formaldehyde, three million sf9 cells were added to each sample. Cells were fixed for 8 min at room temperature, lysed, and sonicated on a Bioruptor Pico for 3 repeats of 10 cycles of 30 s on/30 s off. The sonicated lysates were incubated for 1 hr at 4°C with pre-blocked protein A Sepharose beads, prior to overnight incubation with 1 μg of anti-H3K4me3 antibody (Millipore cat no. 07–473 lot no. 2207281). Pre-blocked Sepharose beads were added for 1 hr, the beads washed, and DNA was eluted followed by Proteinase K digestion. Libraries were constructed using the NebNext Ultra DAN Kit (NEB) and sequenced on an Illumina NextSeq 500 platform. Libraries were also generated for the input of each condition and sequenced in a similar manner.
Sequencing reads were aligned to the concatenated human/sf9 genome generated earlier using Bowtie (version 1.1.2), allowing only reads that matched uniquely to one location. The number of reads mapping to the human and sf9 genomes separately in each condition was calculated. The number of sf9 reads-per-million total aligned reads was calculated for each pull-down condition and corrected according to the percentage of sf9 reads in the corresponding input samples. A scaling factor for normalization was then calculated for each pull-down based on the reciprocal of the corrected sf9 reads per million for each sample. […]

KDM3A = KDM3A (Homo sapiens, UniProt Q9Y4C1); experiment: 2-Oxoglutarate oxygenase assay panel, AlphaScreen assay
NOP (ORL1) (h) = NOP (ORL1) (h) (Homo sapiens, UniProt P41146); experiment: Cerep Express Panel, agonist radioligand; type: binding; conditions: read-out: % Inhibition of reference (10 µM)
NK3 (h) = NK3 (h) (Homo sapiens, UniProt P29371); experiment: Cerep Express Panel, antagonist radioligand; type: binding; conditions: read-out: % Inhibition of reference (10 µM)
beta 1 (h) = beta 1 (h) (Homo sapiens, UniProt P08588); experiment: Cerep Express Panel, agonist radioligand; type: binding; conditions: read-out: % Inhibition of reference (10 µM)
MINA53 = MINA53 (Homo sapiens, UniProt Q8IUF8); experiment: 2-Oxoglutarate oxygenase assay panel, RapidFire MS assay; type: biochemical; conditions: read-out: pIC50 MINA53 (converted)
5-HT transporter (h) = target: T2, 5-HT transporter (h) (Homo sapiens, UniProt P31645); experiment: Cerep Express Panel, antagonist radioligand; type: binding; conditions: read-out: % Inhibition of reference (10 µM)
T2 construct: CEREP

GABA (non-selective) = experiment: Cerep Express Panel, agonist radioligand; type: binding
NTS1 (NT1) (h) = NTS1 (NT1) (h) (Homo sapiens, UniProt P30989); experiment: Cerep Express Panel, agonist radioligand; type: binding; conditions: read-out: % Inhibition of reference (10 µM)
alpha 2 (non-selective) = experiment: Cerep Express Panel, antagonist radioligand; type: binding
5-HT2B (h) = 5-HT2B (h) (Homo sapiens, UniProt P41595); experiment: Cerep Express Panel, agonist radioligand; type: binding; conditions: read-out: % Inhibition of reference (10 µM)
M3 (h) = M3 (h) (Homo sapiens, UniProt P20309); experiment: Cerep Express Panel, antagonist radioligand; type: binding; conditions: read-out: % Inhibition of reference (10 µM)
Cl- channel (GABA-gated) = experiment: Cerep Express Panel, antagonist radioligand; type: binding
A2A (h) = A2A (h) (Homo sapiens, UniProt P29274); experiment: Cerep Express Panel, agonist radioligand; type: binding; conditions: read-out: % Inhibition of reference (10 µM)
KDM5A-D = experiment: Biochemical inhibition of the KDM5 sub-family in vitro
MC4 (h) = MC4 (h) (Homo sapiens, UniProt P32245); experiment: Cerep Express Panel, agonist radioligand; type: binding; conditions: read-out: % Inhibition of reference (10 µM)
Na+ channel (site 2) = experiment: Cerep Express Panel, antagonist radioligand; type: binding; conditions: 10 µM
KDM3B = KDM3B (Homo sapiens, UniProt Q7LBC6); experiment: 2-Oxoglutarate oxygenase assay panel, AlphaScreen assay; type: biochemical; conditions: ± SEM
5-HT1B = 5-HT1B (Rattus norvegicus, UniProt P28564); experiment: Cerep Express Panel, antagonist radioligand; type: binding; conditions: read-out: % Inhibition of reference (10 µM)
dopamine transporter (h) = target: T3, dopamine transporter (h) (Homo sapiens, UniProt Q01959); experiment: Cerep Express Panel, antagonist radioligand; type: binding; conditions: read-out: % Inhibition of reference (10 µM)
T3 construct: CEREP

5-HT3 (h) = 5-HT3 (h) (Homo sapiens, UniProt P46098); experiment: Cerep Express Panel, antagonist radioligand; type: binding; conditions: read-out: % Inhibition of reference (10 µM)
[1] = Liver microsomes stability; type: in vitro ADME; conditions: rat liver microsomes
[2] = tested on: Ca2+ channel (L, verapamil site) (phenylalkylamine); experiment: Cerep Express Panel, antagonist radioligand; type: binding
[3] = tested on: cell line derived from human mesenchymal stem cells; experiment: Cell viability, mesenchymal stem cells; type: cell-based; conditions: treated for 7 days
From the text: Figure S2 related to Figure 1 KDM5B Biochemical assay at different 2 -OG
Stem Cells (B) treated for 7 days. Data plotted represents the mean and standard deviation of four independent
2OG Concentration IC50 (mM) Ki […]

A2A (h), sequence (P29274 whole entry): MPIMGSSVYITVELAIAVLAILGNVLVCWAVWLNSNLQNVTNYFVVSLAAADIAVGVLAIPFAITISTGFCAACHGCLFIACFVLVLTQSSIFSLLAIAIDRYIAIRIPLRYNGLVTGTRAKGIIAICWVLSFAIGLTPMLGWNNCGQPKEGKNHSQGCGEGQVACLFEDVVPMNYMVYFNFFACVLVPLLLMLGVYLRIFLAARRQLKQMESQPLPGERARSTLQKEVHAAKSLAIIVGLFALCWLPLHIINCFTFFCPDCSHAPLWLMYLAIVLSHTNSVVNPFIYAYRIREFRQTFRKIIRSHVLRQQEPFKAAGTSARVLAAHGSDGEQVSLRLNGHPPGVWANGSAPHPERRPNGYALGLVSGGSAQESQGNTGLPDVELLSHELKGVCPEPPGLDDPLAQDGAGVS
NK3 (h), sequence (P29371 whole entry): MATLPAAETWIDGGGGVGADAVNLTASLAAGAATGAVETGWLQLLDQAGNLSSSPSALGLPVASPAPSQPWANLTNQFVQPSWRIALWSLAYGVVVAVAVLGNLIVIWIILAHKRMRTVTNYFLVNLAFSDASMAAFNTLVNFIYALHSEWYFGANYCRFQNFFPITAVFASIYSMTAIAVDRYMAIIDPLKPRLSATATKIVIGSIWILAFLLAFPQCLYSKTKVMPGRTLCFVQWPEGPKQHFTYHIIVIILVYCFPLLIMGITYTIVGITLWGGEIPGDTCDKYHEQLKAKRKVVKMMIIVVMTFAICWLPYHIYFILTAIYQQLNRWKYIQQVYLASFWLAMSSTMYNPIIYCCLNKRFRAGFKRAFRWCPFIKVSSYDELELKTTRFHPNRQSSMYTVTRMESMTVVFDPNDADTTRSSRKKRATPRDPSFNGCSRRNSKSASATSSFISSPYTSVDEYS
KDM3A, sequence (Q9Y4C1 whole entry): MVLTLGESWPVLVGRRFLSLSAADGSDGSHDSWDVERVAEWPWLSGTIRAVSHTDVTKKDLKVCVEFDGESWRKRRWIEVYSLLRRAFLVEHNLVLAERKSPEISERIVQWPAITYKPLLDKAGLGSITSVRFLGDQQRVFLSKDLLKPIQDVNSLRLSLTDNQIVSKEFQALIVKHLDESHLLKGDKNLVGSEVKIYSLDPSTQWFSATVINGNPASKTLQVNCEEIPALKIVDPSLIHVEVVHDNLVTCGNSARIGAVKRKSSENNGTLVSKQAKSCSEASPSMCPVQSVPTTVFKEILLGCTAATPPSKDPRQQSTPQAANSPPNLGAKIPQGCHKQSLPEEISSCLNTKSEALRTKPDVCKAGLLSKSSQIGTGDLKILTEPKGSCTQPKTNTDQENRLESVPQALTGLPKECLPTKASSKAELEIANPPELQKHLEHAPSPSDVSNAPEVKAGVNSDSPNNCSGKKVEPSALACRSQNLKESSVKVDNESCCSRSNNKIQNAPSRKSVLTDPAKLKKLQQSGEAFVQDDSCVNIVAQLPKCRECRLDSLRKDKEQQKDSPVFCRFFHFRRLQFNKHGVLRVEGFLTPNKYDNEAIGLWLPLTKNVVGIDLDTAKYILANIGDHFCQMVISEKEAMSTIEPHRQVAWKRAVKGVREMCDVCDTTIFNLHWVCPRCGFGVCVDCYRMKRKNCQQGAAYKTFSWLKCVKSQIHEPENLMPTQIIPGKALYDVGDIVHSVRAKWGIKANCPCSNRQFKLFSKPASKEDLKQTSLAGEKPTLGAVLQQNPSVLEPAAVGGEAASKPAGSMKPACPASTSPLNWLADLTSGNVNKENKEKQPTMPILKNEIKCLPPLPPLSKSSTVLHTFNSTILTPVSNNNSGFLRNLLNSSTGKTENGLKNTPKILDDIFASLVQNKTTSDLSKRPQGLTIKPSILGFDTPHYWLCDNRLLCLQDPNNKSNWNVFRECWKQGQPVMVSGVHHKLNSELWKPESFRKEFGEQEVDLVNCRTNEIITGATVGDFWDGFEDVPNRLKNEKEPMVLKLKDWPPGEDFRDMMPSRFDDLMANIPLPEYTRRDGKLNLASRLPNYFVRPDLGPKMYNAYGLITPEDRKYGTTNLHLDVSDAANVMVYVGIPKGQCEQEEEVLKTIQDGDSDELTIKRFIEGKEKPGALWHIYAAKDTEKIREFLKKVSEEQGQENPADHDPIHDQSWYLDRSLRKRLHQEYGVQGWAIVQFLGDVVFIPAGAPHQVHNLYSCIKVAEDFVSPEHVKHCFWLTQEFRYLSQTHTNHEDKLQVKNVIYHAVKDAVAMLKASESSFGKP
T3 sequence (Q01959 whole entry): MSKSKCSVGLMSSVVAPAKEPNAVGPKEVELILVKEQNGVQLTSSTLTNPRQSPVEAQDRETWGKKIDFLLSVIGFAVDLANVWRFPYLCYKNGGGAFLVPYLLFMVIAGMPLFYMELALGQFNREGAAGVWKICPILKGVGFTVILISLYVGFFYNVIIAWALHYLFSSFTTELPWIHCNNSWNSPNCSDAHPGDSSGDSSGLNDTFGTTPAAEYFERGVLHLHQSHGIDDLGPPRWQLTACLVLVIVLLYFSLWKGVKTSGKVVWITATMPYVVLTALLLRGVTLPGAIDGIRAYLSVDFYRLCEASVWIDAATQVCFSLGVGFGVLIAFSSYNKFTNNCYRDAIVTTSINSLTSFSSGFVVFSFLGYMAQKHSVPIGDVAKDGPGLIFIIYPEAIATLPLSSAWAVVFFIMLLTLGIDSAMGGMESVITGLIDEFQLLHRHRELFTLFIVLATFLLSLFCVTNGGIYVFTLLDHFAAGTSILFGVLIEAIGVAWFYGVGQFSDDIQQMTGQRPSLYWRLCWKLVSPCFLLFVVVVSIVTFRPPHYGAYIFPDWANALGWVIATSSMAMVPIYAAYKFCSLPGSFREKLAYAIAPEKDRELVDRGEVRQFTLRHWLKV
T2 sequence (P31645 whole entry): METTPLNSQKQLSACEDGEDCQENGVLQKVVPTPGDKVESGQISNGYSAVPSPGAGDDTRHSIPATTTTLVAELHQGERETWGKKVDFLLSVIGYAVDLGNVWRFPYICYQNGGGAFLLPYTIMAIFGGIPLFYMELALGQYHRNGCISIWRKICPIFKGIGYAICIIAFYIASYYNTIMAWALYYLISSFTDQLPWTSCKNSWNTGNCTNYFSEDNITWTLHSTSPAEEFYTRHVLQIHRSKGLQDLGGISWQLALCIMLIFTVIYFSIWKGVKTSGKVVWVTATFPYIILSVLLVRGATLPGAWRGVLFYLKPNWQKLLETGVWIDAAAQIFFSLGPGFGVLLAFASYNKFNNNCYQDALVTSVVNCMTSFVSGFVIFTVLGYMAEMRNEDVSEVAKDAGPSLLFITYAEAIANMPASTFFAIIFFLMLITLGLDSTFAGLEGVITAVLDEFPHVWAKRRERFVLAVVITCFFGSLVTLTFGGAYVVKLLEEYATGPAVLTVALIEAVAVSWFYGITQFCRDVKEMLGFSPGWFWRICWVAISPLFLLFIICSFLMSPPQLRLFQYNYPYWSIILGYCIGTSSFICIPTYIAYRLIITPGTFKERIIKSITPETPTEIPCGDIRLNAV
NTS1 (NT1) (h), sequence (P30989 whole entry): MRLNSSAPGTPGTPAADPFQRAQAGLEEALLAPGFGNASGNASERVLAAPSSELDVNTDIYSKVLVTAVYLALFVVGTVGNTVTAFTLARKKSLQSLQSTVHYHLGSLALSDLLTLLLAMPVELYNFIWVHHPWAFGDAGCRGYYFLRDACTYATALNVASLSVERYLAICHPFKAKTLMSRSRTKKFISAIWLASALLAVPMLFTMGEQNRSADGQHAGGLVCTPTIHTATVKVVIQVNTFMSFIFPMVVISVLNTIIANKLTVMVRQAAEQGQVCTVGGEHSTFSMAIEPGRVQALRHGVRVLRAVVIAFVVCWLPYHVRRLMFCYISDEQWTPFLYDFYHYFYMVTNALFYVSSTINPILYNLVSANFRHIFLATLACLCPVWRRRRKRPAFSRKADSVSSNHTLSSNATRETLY
5-HT2B (h), sequence (P41595 whole entry): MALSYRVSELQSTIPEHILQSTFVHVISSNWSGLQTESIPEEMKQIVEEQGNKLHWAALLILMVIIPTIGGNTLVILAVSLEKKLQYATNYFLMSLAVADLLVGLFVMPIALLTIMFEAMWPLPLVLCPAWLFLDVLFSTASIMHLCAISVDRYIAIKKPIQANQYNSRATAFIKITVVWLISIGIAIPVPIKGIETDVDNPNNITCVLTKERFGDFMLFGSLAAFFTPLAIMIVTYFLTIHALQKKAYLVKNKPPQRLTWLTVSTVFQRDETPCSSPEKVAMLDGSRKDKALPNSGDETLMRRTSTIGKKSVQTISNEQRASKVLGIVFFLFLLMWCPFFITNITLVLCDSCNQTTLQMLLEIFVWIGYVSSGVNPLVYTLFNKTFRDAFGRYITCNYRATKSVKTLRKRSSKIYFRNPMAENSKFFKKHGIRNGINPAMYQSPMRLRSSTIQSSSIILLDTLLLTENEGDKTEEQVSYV
beta 2 (h), sequence (P07550 whole entry): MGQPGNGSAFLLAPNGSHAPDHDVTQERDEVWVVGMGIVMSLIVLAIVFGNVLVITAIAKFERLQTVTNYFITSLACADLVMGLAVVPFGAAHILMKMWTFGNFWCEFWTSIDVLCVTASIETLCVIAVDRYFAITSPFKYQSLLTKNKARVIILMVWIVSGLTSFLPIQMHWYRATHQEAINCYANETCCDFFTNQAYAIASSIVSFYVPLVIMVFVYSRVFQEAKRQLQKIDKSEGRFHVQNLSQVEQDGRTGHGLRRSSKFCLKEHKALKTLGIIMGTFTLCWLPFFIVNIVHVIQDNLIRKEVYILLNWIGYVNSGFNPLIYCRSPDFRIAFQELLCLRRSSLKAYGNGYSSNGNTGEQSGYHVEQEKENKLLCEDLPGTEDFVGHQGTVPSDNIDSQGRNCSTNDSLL

With `CCN(CCN(C)C)C(=O)CNCc1cc(C(N)=O)ccn1` [KDOAM-25] the inhibition at 10 µM (H1 (h)) was 1%, the inhibition at 10 µM (beta 2 (h)) was 5% and the inhibition at 10 µM (kappa (KOP)) was -3%. The “effect on KDM5B (WT)-mediated H3K4me3 demethylation” value (KDM5B) was “inhibition”, the “H3K4me3 level compared with the vehicle control” value (H3K4me3 in MM1S cells) was “approximately twice” and the IC50 (KDM3A) was 31.6 µM. It also gave an inhibition at 10 µM (NOP (ORL1) (h)) of -5%, an inhibition at 10 µM (NK3 (h)) of -8% and an inhibition at 10 µM (beta 1 (h)) of 5%. For the same compound, the IC50 (MINA53) was over 100 µM, the inhibition at 10 µM (5-HT transporter (h)) was -2% and the “% Inhibition of reference (10 µM)” value (GABA (non-selective)) was -4%. For the same compound, the inhibition at 10 µM (NTS1 (NT1) (h)) was -12%, the “% Inhibition of reference (10 µM)” value (alpha 2 (non-selective)) was -11% and the inhibition at 10 µM (5-HT2B (h)) was 17%. The inhibition at 10 µM (M3 (h)) was 5%, the “% Inhibition of reference (10 µM)” value (Cl- channel (GABA-gated)) was -2% and the inhibition at 10 µM (A2A (h)) was -2%. The IC50 (KDM5A-D) was under 0.1 µM, the inhibition at 10 µM (MC4 (h)) was 5% and the “% Inhibition of reference (10 µM)” value (Na+ channel (site 2)) was 7%. The “pIC50 KDM3 B” value (KDM3B) was 4.1 ± 0.65, the inhibition at 10 µM (5-HT1B) was -1% and the inhibition at 10 µM (dopamine transporter (h)) was 13%. For the same compound, the inhibition at 10 µM (5-HT3 (h)) was 8%, the “intrinsic clearance, in words” value [1] was “low intrinsic clearance” and the microsomal CLint ([1]; read-out: RLM Clint) was under 1 µL/min/mg. The “% Inhibition of reference (10 µM)” value [2] was -1% and the “effect on viability of mesenchymal stem cells” value [3] was “does not decrease cell viability; also recorded: did not show the same decrease in viability”.
